Structures are written as SMILES. Active and inactive are the calls of the source.

Experiment [1] is described as follows: cells. It counts as functional, cell-based.
Experiment [2] can be described thus: cells. It counts as functional, cell-based. The source holds these as a separate data set.
The target of experiment [3] is Hepatocyte nuclear factor 4-alpha (Homo sapiens, UniProt P41235). It counts as functional, cell-based.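 Also: biochemical luminescence-based dose-response counterscreen measuring inhibition of HNF4 dimerization, run alongside a screen for blockers of ABHD5–perilipin-5 interaction; split luciferase complementation of HNF4 fusion proteins in cell lysate measuring dimerization.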
Experiment [4] addresses Cytochrome P450 2D6 (Homo sapiens, UniProt P10635).
For experiment [5], the target named is T1, Heat shock factor protein 1 (Mus musculus, UniProt P38532).
T1 sequence (P38532 whole entry): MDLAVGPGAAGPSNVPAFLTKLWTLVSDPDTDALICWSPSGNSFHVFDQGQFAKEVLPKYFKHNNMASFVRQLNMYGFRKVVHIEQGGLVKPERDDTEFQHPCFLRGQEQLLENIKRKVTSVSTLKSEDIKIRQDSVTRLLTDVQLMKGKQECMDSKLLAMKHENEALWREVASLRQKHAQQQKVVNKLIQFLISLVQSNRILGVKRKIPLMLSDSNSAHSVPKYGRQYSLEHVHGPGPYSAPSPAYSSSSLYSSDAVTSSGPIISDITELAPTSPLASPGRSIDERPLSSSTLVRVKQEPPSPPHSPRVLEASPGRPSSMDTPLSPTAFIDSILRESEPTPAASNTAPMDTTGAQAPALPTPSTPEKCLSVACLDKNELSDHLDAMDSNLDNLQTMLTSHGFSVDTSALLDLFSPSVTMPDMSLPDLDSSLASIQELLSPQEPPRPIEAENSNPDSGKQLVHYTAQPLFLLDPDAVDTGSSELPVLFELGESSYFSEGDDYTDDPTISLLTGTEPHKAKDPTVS
In words: HSF1 potentiators in luciferase reporter cells, confirmation, cell-based, NIH3T3, luminescence, dose retest (AID 435004).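 Also: stress induced by proteasome inhibitor MG132 added 30 min after compound; luciferase reporter driven by HSF1 response element in NIH3T3 cells; actives raise luminescence as potentiators of the MG132 stress response.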 It counts as functional.

Experiment [6] addresses T2, Corticotropin-releasing factor receptor 2/Corticotropin-releasing factor-binding protein (Homo sapiens, UniProt P24387+Q13324).
T2 sequence (Q13324 whole entry): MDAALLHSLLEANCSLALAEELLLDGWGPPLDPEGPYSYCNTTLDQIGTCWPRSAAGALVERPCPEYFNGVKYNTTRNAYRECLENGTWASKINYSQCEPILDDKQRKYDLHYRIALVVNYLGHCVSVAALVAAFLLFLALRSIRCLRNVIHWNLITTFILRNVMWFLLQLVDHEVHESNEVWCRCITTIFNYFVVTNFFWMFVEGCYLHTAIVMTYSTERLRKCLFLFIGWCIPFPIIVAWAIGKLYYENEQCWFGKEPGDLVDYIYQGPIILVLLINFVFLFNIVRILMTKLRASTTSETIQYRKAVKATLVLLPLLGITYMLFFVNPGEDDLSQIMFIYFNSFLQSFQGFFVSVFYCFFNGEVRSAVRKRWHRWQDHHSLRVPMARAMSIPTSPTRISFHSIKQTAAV
T2 sequence (P24387 whole entry): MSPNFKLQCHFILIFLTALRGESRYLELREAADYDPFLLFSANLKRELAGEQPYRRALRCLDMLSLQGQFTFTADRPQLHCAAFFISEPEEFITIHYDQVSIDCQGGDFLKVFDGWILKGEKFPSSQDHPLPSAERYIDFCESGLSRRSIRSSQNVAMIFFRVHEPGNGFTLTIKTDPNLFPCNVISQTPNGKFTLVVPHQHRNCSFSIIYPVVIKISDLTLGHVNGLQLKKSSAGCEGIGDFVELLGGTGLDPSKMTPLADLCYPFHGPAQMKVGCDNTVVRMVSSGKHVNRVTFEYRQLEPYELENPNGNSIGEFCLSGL
Briefly: Dose Response confirmation of uHTS hits for small molecule antagonists of the CRF-binding protein and CRF-R2 receptor complex. It counts as functional. The conditions noted are these: read-out: IC50_Mean.

Experiment [7] has as its target T2, Corticotropin-releasing factor receptor 2/Corticotropin-releasing factor-binding protein. In words: activators of CRF receptor 2 with binding protein – uHTS hits, confirmation (AID 602473). It counts as functional. The conditions noted are these: read-out: EC50_Mean.
The nature of experiment [8]: CRF-BP/CRF-R2 complex antagonists, dose response, cell-based, uHTS hits, 384-well (AID 651639). It counts as functional, Homo sapiens. The conditions noted are these: read-out: IC50_Mean.
The nature of experiment [9]: control 3'UTR Renilla luciferase suppression, dose response, counter-screen for Shn3 inhibitor project, cell-based, Clone20-Shn3RL, cherry-picked (AID 624133). It counts as functional.
Experiment [10] in a line: HepG2 cell cytotoxicity, dose response, cytotoxicity control for Shn3 inhibitor project, CellTiter-Glo, cherry-picked (AID 624134). It counts as functional, cell-based.
A short description of experiment [11]: Shn3 3'UTR reporter inhibitors, dose response, cell-based, Clone20 osteoblasts, firefly luciferase, cherry-picked (AID 624132).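 Also: firefly luciferase luminescence from reporter carrying the Shn3 3'UTR in osteoblasts.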 It counts as functional.
Experiment [12] in a line: Fluorescence-based cell-based high throughput dose response assay for inhibitors of the interaction of nucleotide-binding oligomerization domain containing 2 (NOD2) and the receptor-interacting serine-threonine kinase 2 (RIPK2). It counts as functional. The following applies: Homo sapiens.
Experiment [13] has as its system INS1. Briefly: beta cell apoptosis inhibitors, cytokine rescue, dose response, luminescence, retest (AID 449756).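 Also: cell death triggered by IL-1 beta plus TNF-alpha plus IFN-gamma mixture; protective hits raise ATP signal compared with cytokine alone wells.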 It counts as functional, cell-based. The following applies: Rattus norvegicus, INS1.
In experiment [14] the target is T3, Protein RecA (Mycobacterium tuberculosis, UniProt P9WHJ3).
T3 sequence (P9WHJ3 whole entry): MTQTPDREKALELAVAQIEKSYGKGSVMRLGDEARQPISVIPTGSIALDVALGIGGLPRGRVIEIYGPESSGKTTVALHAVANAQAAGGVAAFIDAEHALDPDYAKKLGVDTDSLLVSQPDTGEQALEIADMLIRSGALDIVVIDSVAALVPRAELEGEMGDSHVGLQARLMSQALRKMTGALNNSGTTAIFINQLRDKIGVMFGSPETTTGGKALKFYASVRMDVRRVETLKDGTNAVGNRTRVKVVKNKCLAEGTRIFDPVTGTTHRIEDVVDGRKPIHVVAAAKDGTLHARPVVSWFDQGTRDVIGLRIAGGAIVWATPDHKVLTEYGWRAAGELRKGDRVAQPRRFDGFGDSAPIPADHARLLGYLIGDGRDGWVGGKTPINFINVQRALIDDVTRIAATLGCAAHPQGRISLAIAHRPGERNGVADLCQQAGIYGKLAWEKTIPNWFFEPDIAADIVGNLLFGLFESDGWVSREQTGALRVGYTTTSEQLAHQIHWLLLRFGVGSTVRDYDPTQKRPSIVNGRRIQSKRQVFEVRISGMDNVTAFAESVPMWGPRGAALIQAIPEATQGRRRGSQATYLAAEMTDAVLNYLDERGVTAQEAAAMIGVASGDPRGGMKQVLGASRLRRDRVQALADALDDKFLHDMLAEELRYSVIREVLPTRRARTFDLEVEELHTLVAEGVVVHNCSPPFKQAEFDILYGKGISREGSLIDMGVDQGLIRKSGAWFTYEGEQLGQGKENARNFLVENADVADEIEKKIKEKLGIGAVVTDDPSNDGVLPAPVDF
Briefly: Fluorescence Cell-Free Homogeneous Dose Retest to Identify Inhibitors of RecA-Intein Splicing Activity. [Related pubchem assays (depositor defined):AID2097, AID2223, AID489010, AID492950]. It counts as functional.

Experiment [15] deals with T4, Replicative DNA helicase DnaB (Mycobacterium tuberculosis, UniProt P9WMR3).
T4 sequence (P9WMR3 whole entry): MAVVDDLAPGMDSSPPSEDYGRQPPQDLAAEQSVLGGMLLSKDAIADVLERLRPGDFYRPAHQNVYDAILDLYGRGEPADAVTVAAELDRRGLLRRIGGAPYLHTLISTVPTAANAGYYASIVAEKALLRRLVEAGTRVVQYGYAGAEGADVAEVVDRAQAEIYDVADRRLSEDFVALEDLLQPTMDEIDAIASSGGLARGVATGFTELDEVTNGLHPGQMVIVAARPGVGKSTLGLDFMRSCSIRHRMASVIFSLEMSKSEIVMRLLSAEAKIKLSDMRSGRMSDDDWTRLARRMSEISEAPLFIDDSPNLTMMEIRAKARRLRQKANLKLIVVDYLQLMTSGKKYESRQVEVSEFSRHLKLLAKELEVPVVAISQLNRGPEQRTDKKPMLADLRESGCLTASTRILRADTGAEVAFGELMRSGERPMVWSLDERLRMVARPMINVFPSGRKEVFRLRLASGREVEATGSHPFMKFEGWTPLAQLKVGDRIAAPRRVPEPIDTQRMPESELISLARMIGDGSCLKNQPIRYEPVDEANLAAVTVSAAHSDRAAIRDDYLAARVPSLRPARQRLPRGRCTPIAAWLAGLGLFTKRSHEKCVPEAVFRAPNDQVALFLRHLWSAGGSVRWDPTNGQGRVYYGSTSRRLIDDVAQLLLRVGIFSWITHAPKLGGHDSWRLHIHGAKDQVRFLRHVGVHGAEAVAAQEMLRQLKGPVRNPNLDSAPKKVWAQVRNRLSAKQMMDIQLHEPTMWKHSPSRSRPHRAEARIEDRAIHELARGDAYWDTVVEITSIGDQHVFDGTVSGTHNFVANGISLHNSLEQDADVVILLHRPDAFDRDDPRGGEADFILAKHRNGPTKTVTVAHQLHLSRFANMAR
In words: DnaB intein splicing inhibitors, dose response, biochemical, cell-free fluorescence (AID 449749). It counts as functional.

Hepatocyte nuclear factor 4-alpha, sequence (P41235 whole entry, the tested form may be a part): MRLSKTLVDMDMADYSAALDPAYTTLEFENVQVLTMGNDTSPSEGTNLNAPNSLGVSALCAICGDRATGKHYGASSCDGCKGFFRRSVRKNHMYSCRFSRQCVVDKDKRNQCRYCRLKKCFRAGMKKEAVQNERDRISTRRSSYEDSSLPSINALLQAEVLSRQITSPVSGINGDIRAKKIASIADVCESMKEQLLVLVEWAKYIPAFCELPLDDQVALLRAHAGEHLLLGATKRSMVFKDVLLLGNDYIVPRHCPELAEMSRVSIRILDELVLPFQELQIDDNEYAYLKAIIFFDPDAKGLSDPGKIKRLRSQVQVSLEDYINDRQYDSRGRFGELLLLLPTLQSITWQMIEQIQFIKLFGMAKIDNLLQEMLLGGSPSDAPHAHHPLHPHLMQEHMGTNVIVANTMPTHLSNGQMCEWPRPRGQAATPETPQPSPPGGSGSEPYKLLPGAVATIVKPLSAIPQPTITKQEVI
Cytochrome P450 2D6, sequence (P10635 whole entry): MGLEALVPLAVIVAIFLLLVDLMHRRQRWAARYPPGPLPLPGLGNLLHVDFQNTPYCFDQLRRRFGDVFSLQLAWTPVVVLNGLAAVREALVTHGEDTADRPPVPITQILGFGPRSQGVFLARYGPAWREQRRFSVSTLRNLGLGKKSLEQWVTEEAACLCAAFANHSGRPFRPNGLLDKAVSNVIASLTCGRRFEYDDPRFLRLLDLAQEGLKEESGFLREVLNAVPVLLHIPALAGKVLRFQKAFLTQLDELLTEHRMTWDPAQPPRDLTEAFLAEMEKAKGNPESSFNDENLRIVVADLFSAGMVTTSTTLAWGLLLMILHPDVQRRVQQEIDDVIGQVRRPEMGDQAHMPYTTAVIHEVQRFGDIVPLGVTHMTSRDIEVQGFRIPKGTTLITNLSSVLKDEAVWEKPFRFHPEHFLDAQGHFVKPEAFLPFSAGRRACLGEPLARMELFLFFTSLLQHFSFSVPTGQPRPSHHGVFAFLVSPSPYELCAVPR

For `COc1ccccc1/C=C/C(=O)c1ccccc1`, the EC50 was 6.12 µM (active) in experiment [1] and > 350 µM (not active) in [2]. The IC50 in experiment [3] is 7.12 µM (active).
Consider `COc1cccc(CSc2nnc(C(F)(F)F)n2Cc2ccc(F)cc2)c1`, for which the AC50 in experiment [4] was 10 µM (inconclusive). Also, the EC50 was > 260 µM (inactive) in experiment [5] and > 53 µM (inactive) in [7]. For the same molecule, the IC50 in experiment [6] was 7.2 µM (active); in [8], > 20 µM (inactive).
With `CCOC(=O)c1c(-c2ccccc2)oc2ccc(OC(C)C(=O)O)cc12` (stereo not drawn), the IC50 in experiment [6] was < 0.368 µM (active); in experiment [8] it was 0.34 µM (active). For the same molecule, the EC50 in experiment [7] was > 53 µM (inactive).
Consider `O=C(NCc1cccnc1)/C(=C\c1ccc(-c2ccc(Br)cc2)o1)S(=O)(=O)c1ccccc1`, for which the AC50 is 13 µM (active) in experiment [9]; 11.3 µM (active) in experiment [10]; 6.33 µM (active) in experiment [11]; 2.9 µM (active) in experiment [13]; > 380 µM (inconclusive) in [15]. Moreover, the IC50 in experiment [12] was 5.51 µM (active). Besides, the EC50 in experiment [14] was 20.2 µM (active).

Values taken from ChEMBL document CHEMBL1201862, “PubChem BioAssay data set” (2004).
